Data published in patent publication US20090180969A1, “PHARMACEUTICAL FORMULATION COMPRISING AN ANTICHOLINERGIC DRUG” (Chiesi Farmaceutici S.p.A., priority 2008, published 2009).

Tests used:
[1] = system: acetylcholine (Ach)-induced increase in Penh (airway reactivity); assay: Bronchodilation activity: Ach-induced increase in Penh, barometric plethysmography; assay type: in vivo, guinea pig; conditions: for bronchoprotective effect: 24 hours
Experimental: Airway reactivity is measured using barometric plethysmography (Buxco, USA). Male guinea pigs (500-600 g) are individually placed in plexiglass chambers. After an acclimatisation period, animals are exposed to nebulised saline for 1 minute to obtain airway baseline reading. This is followed by a 1 minute challenge with nebulised acetylcholine (Ach)-2.5 mg/mL. After 60 minutes, 5 minute nebulisation of vehicle or the compound 1′ in the range 2.5-250 μM are applied and Ach challenge is then repeated after 2, 5, 24, 48 and 72 hours (h). Recording of pressure fluctuations in the chambers are taken for 5 minutes after each nebulisation and analysed to calculate Enhanced Pause (Penh). Airway reactivity is expressed as percentage increase in Penh compared with Penh values from the nebulisation of vehicle. […] After inhalation of […] of compound 1′, effect persists unchanged up to 48 hours (83.0±16.1%), while at 72 hours a residual activity of 34.8±20.9% is present.

[2] = Estimation of lung levels after nebulisation; assay type: in vivo; conditions: guinea pig, inhaled, nebulisation with submaximal bronchodilator activity, 2 hours after treatment, read-out: retained dose in the target organ (lung)

Molecule `O=C(C[N+]12CCC(CC1)[C@@H](OC(=O)N(Cc1cc(F)c(F)c(F)c1)c1cccc(F)c1)C2)c1cccs1.[Cl-]` [compound 1′, (3R)-3-[[[(3-fluorophenyl)[(3,4,5-trifluorophenyl)methyl]amino]carbonyl]oxy]-1-[2-oxo-2-(2-thienyl)ethyl]-1-azoniabicyclo[2.2.2]octane chloride] has a bronchoprotective effect ([1]; 25 μM inhalation) of 63.7±15.1%, a bronchoprotective effect ([1]; 50 μM inhalation) of 87.1±8.7% and an inhibition ([1]; 50 μM inhalation, 48 h) of 49.2±23.2%. For the same molecule, the “maximal effect, inhibition of Ach-induced increase in Penh” value ([1]; 50 μM nebulised, 2 hours after end of nebulisation) was 99.6±0.4, the “effect (inhibition of Ach-induced increase in Penh)” value ([1]; 250 μM inhalation, 48 hours) was 83.0±16.1% and the residual activity ([1]; 250 μM inhalation, 72 hours) was 34.8±20.9%. It also gave a duration of effect ([1]; inhalation of lower concentrations (below 25 μM)) of at most 5 h and a concentration at 2 h [2] of about 50 ng/g.
